What all share (type): physicochemical
Data set [1] can be described thus: n-Octanol/water distribution coefficients, shake-flask method. Conditions: pH 7.40 (20 mM phosphate buffer); 100 mM chloride; 25.0 °C. How it is done: The traditional shake-flask method was used to obtain distribution coefficients of the ligands as well as of the complexes in n-octanol/buffered aqueous solution (20 mM phosphate, pH = 7.40 or 10 mM MES, pH 5.50) at different chloride ion concentrations (4, 24 and 100 mM) using UV-vis spectrophotometry (Agilent Cary 8454 diode array spectrophotometer, Santa Clara, CA, USA) for the analysis. The measurement and data evaluation were performed as described in our former work.

Data set [2] in a line: Formation constants of Fe(III) complexes by UV-vis spectrophotometric titrations. The note with it: I = 0.1 M KCl, 25.0 °C. As for the experimental part: UV-vis titrations were performed to determine the formation (overall stability) constants (β) for the complexes of HQNO2-L-Pro formed with Fe(III) and Fe(II) ions (Figures S10 and S11). In the latter case, titrations were performed in a laboratory glove box. The calculations were complicated by the overlapping feature of the ligand bands and the charge transfer bands of the complexes. Based on the absorption spectra Figures S10a and S11a), formation of mono, bis, and tris complexes were found in both chemical systems; obtained constants are collected in Table 2. […] Based on the concentration distribution diagrams (see Figure S10b for Fe(III) and Figure S11b for Fe(II)), it can be concluded that the tris complexes are the dominant species at pH 7.4 in the case of Fe(III), while with Fe(II) both tris and bis-ligand species are formed under the conditions of the titrations.
(§1) An Agilent Cary 8454 diode array spectrophotometer (Santa Clara, CA, USA) was used to obtain UV-vis spectra in the wavelength range 200–1000 nm, while spectra were recorded for the Fe(II)-containing samples using an Avantes (Avantes B.V., Apeldoorn, The Nederlands) AvaSpec-ULS2048CL-EVO spectrometer with an AvaLight-DHc light source and FDP-7UVIR200-2-VAR transmission dip probe. The titrations for the Fe(II)-containing samples were performed in a laboratory glove box (GP(Campus), Jacomex) (O2 content ≤ 1 ppm). The path length (ℓ) was 1 cm in most cases (the actual ℓ is always indicated in the legends of the figures). The concentrations of the ligands and complexes were between 40 and 200 µM, and 0.2 M KNO3 for the organometallic complexes or 0.1 M KCl for the Fe(II/III), Cu(II), and Zn(II) complexes were used to adjust the constant ionic strength. For HSA containing samples, complex concentrations were 50 µM, and 0.5, and 2 equiv. biomolecules were added for kinetic studies, respectively. For HSA model containing samples, complex concentrations were 50 µM, and the model concentrations were 0–150 µM and 0–500 µM, respectively, and the pH was 7.4 (PBS’). Spectra were always background and baseline corrected. […]

Data set [3] can be described thus: Formation constants of Zn(II) complexes by UV-vis spectrophotometric titrations. Conditions: I = 0.1 M KCl, 25.0 °C, data evaluated at pH < 8. As for the experimental part: Complexation of HQNO2-L-Pro with Zn(II) was studied by UV-vis and ^1H NMR spectroscopy (Figure 6). Comparing the UV-vis spectra recorded for the ligand in the presence and in the absence of Zn(II) with increasing pH, complex formation was evident from the UV-vis spectral changes at pH < ~8; however, in the basic pH range the spectra resembled more and more those of the free ligand. Based on the spectra recorded at pH < 8, formation constants for species [Zn(HL)]^+ and [Zn(HL)2] were determined (Table 2).
as §1, with “strength.” for “strength. For HSA containing samples, complex concentrations were 50 µM, and 0.5, and 2 equiv. biomolecules were added for kinetic studies, respectively. For HSA model containing samples, complex concentrations were 50 µM, and the model concentrations were 0–150 µM and 0–500 µM, respectively, and the pH was 7.4 (PBS’). Spectra were always background and baseline corrected.”

The nature of data set [4]: Proton dissociation constants (pKa) of the ligand by pH-potentiometric, UV-vis and 1H NMR titrations. The note with it: for pKa: 25.0 °C. How it is done: Characterization of the protonation/deprotonation equilibrium processes of a bioactive molecule is important to reveal its actual chemical form and charge at a given pH. The proton dissociation constant (Ka) is a key physico-chemical parameter since it has an impact on many biopharmaceutical characteristics such as lipophilicity, water solubility, and albumin binding, which in turn directly influences pharmacokinetics. The pKa values of the protonated HQNO2-L-Pro were determined by pH-potentiometric, UV-vis (Figure 1a), and ^1H NMR spectroscopic titrations (Table 1).
The pH-potentiometric measurements were carried out at 25.0 ± 0.1 °C in water in the pH range between 2.0 and 11.5 at a constant ionic strength of 0.2 M KNO3. The titrations were performed in a carbonate-free KOH solution (0.20 or 0.10 M). The exact concentrations of HNO3, HCl, and KOH solutions were always determined by pH-potentiometric titrations. An Orion 710A pH-meter equipped with a Metrohm combined electrode (type 6.0234.100) and a Metrohm 665 Dosimat burette were used for the measurements. […] The average water ionization constant (pKw) was determined as 13.76 ± 0.01, which is in good agreement with the literature data. In the case of the titrations in 30% (v/v) DMSO/H2O, the calibration of the pH-potentiometric system was conducted as in our former works. Samples were degassed by bubbling purified argon through them for about 10 min prior to the measurements, and the inert gas was also passed over the solutions during the titrations. Stoichiometry of the species and their equilibrium constants were obtained similarly to that performed in our previous works, with the use of computer program Hyperquad2013 [50].
An Agilent Cary 8454 diode array spectrophotometer (Santa Clara, CA, USA) was used to obtain UV-vis spectra in the wavelength range 200–1000 nm, while spectra were recorded for the Fe(II)-containing samples using an Avantes (Avantes B.V., Apeldoorn, The Nederlands) AvaSpec-ULS2048CL-EVO spectrometer with an AvaLight-DHc light source and FDP-7UVIR200-2-VAR transmission dip probe. The titrations for the Fe(II)-containing samples were performed in a laboratory glove box (GP(Campus), Jacomex) (O2 content ≤ 1 ppm). The path length (ℓ) was 1 cm in most cases (the actual ℓ is always indicated in the legends of the figures). The concentrations of the ligands and complexes were between 40 and 200 µM, and 0.2 M KNO3 for the organometallic complexes or 0.1 M KCl for the Fe(II/III), Cu(II), and Zn(II) complexes were used to adjust the constant ionic strength. For HSA containing samples, complex concentrations were 50 µM, and 0.5, and 2 equiv. biomolecules were added for kinetic studies, respectively. For HSA model containing samples, complex concentrations were 50 µM, and the model concentrations were 0–150 µM and 0–500 µM, respectively, and the pH was 7.4 (PBS’). Spectra were always background and baseline corrected. The computer program HypSpec was used to obtain stability constants. Hydrolysis constants of the Fe(III), Fe(II), RuCym, and RhCp* species were included in the speciation models (see Table S4 with the data taken from References).
The Bruker Avance III HD Ascend 500 Plus instrument (Billerica, MA, USA) was used for NMR studies. ^1H NMR spectroscopic measurements were carried out with a WATERGATE water suppression pulse scheme in the presence of 10% (v/v) D2O/H2O in most cases. DSS internal standard was added to samples to obtain reference peaks. ^1H NMR titrations were carried out for the ligand alone, and for the organometallic complexes in the presence of 0.2 M KNO3. With the AHA and FHA model peptides, the measurements were performed at pH 7.4 (PBS’) at 0.5 or 1 mM metal complex concentrations, and 1:1, 1:2 or 2:1 peptide-to-metal complex ratios were applied. NMR titrations were also performed for the Zn(II)-ligand systems using 0.1 M KCl ionic strength. […]

Results on 2 molecules are retold here after article PMC9820345, “Metal Complexes of a 5-Nitro-8-Hydroxyquinoline-Proline Hybrid with Enhanced Water Solubility Targeting Multidrug Resistant Cancer Cells” (International Journal of Molecular Sciences, 2022).

Where two headings read alike, the source gives them in different places. Bounds are passed on as bounds.

As to `Cc1ccc(C(C)C)cc1.O=C(O)[C@@H]1CCC[NH+]1Cc1cc([N+](=O)[O-])c2ccc[n+]3c2c1[O][Ru-]3[Cl].[Cl-]` [RuCym-HQNO2-L-Pro, [RuCym(HQNO2-L-Pro)Cl]Cl], in data set [1], the “log D7.4” value is “+0.06 ± 0.01”.
As a reminder, the pKa is the negative logarithm of the acid dissociation constant. Regarding `O=C(O)[C@@H]1CCCN1Cc1cc([N+](=O)[O-])c2cccnc2c1O` [HQNO2-L-Pro, (2S)-1-((8-hydroxy-5-nitroquinolin-7-yl)methyl)pyrrolidin-1-ium-2-carboxylate], the “logβ [M(HL)2]” value is reported as 38.76 ± 0.03 in data set [2] and 33.71 ± 0.06 in data set [3]. Further, the “logβ [M(HL)3]” value in data set [2] was determined as 55.66 ± 0.03. The “logβ [M(HL)]” value in data set [2] was 19.75 ± 0.03; in data set [3], 17.36 ± 0.03. For the same molecule, the pKa in data set [4] (0.10 M KCl, UV-vis, I = 0.10 M KCl, cligand 40 μM, read-out: pKa (NProH+)) is 10.75 ± 0.03; in data set [4] (0.10 M KCl, UV-vis, I = 0.10 M KCl, cligand 40 μM, read-out: pKa (OH)), 5.43 ± 0.03; in data set [4] (0.20 M KNO3, 1H NMR, I = 0.20 M KNO3, cligand 1000 μM, read-out: pKa (NProH+)) it was above 10.5; in data set [4] (0.20 M KNO3, 1H NMR, I = 0.20 M KNO3, cligand 1000 μM, read-out: pKa (OH)), 5.56 ± 0.03; in data set [4] (0.20 M KNO3, UV-vis, I = 0.20 M KNO3, cligand 40 μM, read-out: pKa (NProH+)) it was 10.78 ± 0.03; in data set [4] (0.20 M KNO3, UV-vis, I = 0.20 M KNO3, cligand 40 μM, read-out: pKa (OH)) it was 5.5 ± 0.03. Besides, the pKa was determined as 10.68 ± 0.07 in data set [4] (water, 0.20 M KNO3, pH-potentiometry, I = 0.20 M KNO3, cligand 1700 μM, read-out: pKa (NProH+)) and 5.57 ± 0.09 in data set [4] (water, 0.20 M KNO3, pH-potentiometry, I = 0.20 M KNO3, cligand 1700 μM, read-out: pKa (OH)). Besides, the “fraction of H2L” value in data set [4] (pH 5.5) was 47%. The “fraction of HL−” value in data set [4] (pH 5.5) is on record as 53%.
